Laboratory results published in patent US10550089B2, “Inhibitors of protease-activated receptor-2” (Heptares Therapeutics Limited, priority 2016, dated 2020).
pIC50: −log10 of the molar value.

How the values were obtained:
PAR1 = PAR1 (Homo sapiens (Human), UniProt P25116); experiment: β-arrestin type assay by DiscoverX against PAR1
PAR2 [1] = target: T1, PAR2 (Homo sapiens (Human), UniProt P55085); experiment: FLPR dissociation rate assay (PAR2 mean residence time); type: cell-based; settings: cells washed after compound incubation (60-240 min); peptide agonist SLIGLR-NH2; read-out: FLPR Residence time t1/2
Text: FLPR Dissociation Rate Assay: Protocol for Testing Compounds for PAR2 Mean Residence Time
The peptide agonist SLIGLR-NH2 (ECso) was used in place of trypsin.

PAR2 [2] = target: T1, PAR2; experiment: Trypsin activated FLPR Ca2+ mobilization assay for PAR2 antagonist activity; type: cell-based; settings: for IC50: hPAR2 FLPR (Trypsin) IC50 (μM); for pIC50: read-out: hPAR2 FLPR (Trypsin) IC50
Description: Trypin Activated FLPR Assay:
Protocol for Testing Compounds for PAR2 Antagonist Activity Using a Ca2+ Mobilization Assay
Calcium mobilization was measured using 1321N1 cells stably expressing human PAR2. Cells were seeded in 384-well plates at 4,000 cells per well in 20 μl DMEM with Glutamax supplemented with 10% FBS and incubated for 18-24 h at 37° C., 5% CO2 and 95% humidity. […] The addition was done using a FLIPR^TETRA (384-well head, Molecular Devices) and the response was read simultaneously to detect any agonist activity.

PAR2 [3] = target: T1, PAR2; experiment: IP-One HTRF assay for PAR2 antagonist activity (IP1 production); type: cell-based; settings: for IC50: hPAR2 IPpone IC50 (μM); for pIC50: read-out: hPAR2 IPpone IC50
Description: Protocol for Testing Compounds for PAR2 Antagonist Activity Using an IP-One HTRF Assay
Inositol monophosphate (IP1) production were measured in 1321N1 cells stably expressing human PAR2 using an IP-One HTRF assay kit (Cisbio). […] After 60 min at 37° C. cells were lysed and IP1 concentrations were detected according to the manufacturers protocol (Cisbio). Data were normalized to IP1 concentrations using a IP1 standard curve according to the manufacturers protocol (Cisbio).

[4] = 1321N1 cells stably expressing human PAR2, agonist Trypsin, Vorapaxar present to block PAR1
[5] = 1321N1 cells stably expressing human PAR2, agonist SLIGRL-NH2

T1 sequence (P55085 26-397): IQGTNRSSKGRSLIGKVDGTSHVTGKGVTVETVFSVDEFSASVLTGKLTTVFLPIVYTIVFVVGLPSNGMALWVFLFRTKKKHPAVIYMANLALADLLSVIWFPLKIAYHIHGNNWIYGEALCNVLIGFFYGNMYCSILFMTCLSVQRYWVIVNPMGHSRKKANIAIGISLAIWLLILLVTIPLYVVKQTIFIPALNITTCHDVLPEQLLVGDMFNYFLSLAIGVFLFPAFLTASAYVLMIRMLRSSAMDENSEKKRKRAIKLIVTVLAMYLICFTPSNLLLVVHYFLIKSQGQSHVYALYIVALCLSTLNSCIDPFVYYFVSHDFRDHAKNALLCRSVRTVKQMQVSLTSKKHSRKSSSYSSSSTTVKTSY
Chain of PAR1 (P25116 22-425): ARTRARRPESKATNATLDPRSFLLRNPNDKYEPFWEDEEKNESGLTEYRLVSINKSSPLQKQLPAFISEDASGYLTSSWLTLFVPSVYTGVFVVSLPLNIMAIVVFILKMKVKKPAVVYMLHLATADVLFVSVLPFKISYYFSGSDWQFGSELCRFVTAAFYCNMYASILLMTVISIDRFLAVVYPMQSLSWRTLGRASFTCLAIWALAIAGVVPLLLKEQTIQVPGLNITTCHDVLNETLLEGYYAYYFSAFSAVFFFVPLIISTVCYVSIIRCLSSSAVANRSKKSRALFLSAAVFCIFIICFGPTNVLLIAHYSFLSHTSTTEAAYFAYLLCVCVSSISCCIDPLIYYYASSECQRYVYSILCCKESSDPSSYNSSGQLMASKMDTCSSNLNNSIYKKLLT

| Structure (SMILES) | residence time (PAR2 [1]) [min] | pIC50 (PAR2 [2]; [4]) | pIC50 (PAR2 [3]; [5]) | also measured |
| --- | --- | --- | --- | --- |
| CCc1ccc2c(F)ccc(C(O)c3ncc[nH]3)n12 (single isomer, unassigned) [Example 35, (3-Ethyl-8-fluoroindolizin-5-yl)(1H-imidazol-2-yl)methanol] | – | – | – | pIC50 (PAR1): < 4.30 |
| OC(c1ncc[nH]1)c1ccc(F)cc1N1CCCC1 (single isomer, unassigned) [Example 16, (4-Fluoro-2-(pyrrolidin-1-yl)phenyl)(1H-imidazol-2-yl)methanol] | 161 | – | – | IC50 (PAR2 [2]): 10.1 µM; IC50 (PAR2 [3]): 0.96 µM |
| CCCc1cc(F)ccc1[C@H](O)c1ncc[nH]1 [Example 3, (S)-(4-Fluoro-2-propylphenyl)(1H-imidazol-2-yl)methanol] | 62 | 5.41 | 5.89 | pIC50 (PAR1): < 4.30 |
| OC(c1ncc[nH]1)c1ccc(F)cc1N1CCC1 (centres unmarked) [Example 20, (2-(Azetidin-1-yl)-4-fluorophenyl)(1H-imidazol-2-yl)methanol] | – | 4.73 | 5.35 | – |
| OC(c1ncc[nH]1)c1ccc(F)cc1N1CC2CC2C1 (centres unmarked) [Example 30, (2-(3-Azabicyclo[3.1.0]hexan-3-yl)-4-fluorophenyl)(1H-imidazol-2-yl)methanol] | – | – | – | IC50 (PAR2 [2]; [4]): 11.6 µM; IC50 (PAR2 [3]; [5]): 4.67 µM |
| C/C=C\c1cc(F)ccc1C(O)c1ncc[nH]1 (centres unmarked) [Example 9, (Z)-(4-Fluoro-2-(prop-1-enyl)phenyl)(1H-imidazol-2-yl)methanol] | – | 5.20 | 5.02 | – |
| OC(c1ncc[nH]1)c1ccc(F)cc1-n1cccn1 (centres unmarked) [Example 23, (4-Fluoro-2-(1H-pyrazol-1-yl)phenyl)(1H-imidazol-2-yl)methanol] | – | 4.60 | 5.14 | – |
| CC1(F)CN(c2cc(F)ccc2C(O)c2ncc[nH]2)C1 (centres unmarked) [Example 24, (4-Fluoro-2-(3-fluoro-3-methylazetidin-1-yl)phenyl)(1H-imidazol-2-yl)methanol] | – | 4.79 | 5.17 | – |
| OC(c1ncc[nH]1)c1cccc(Cl)c1-n1cccn1 (centres unmarked) [Example 21, (3-Chloro-2-(1H-pyrazol-1-yl)phenyl) (1H-imidazol-2-yl)methanol] | – | 4.39 | 5.19 | – |
| CCc1coc2c(F)ccc([C@H](O)c3ncc[nH]3)c12 (single isomer, unassigned) [Example 42] | 119 | – | – | IC50 (PAR2 [2]; [4]): 3.09 µM; IC50 (PAR2 [3]; [5]): 0.33 µM |
